Assay results published in patent US4118561A, “7-(Substituted)-7H-pyrrolo[3,2-f]quinazoline-1,3-diamines” (priority 1977, dated 1978).
In brackets after ≈: the same amount, converted by molar mass. Like-named read-outs stand apart in the source and are kept apart here.

What was measured:
Proteus mirabilis 190 = test: In vivo antibacterial synergism (mouse), Proteus mirabilis 190; parameters: species or system Proteus mirabilis (infected mice, CD-1); conditions: mice, p.o.; for ED50: Proteus mirabilis, 190, po, 336 h; for PD50 SM/Cpd. (compound part): 0 hours; for PD50 SM/Cpd. (compound part) / CD50 SM/Cpd. (compound part): 20160 min; for CD50 SM/Cpd. (compound part): 6 hours
Experimental: (§1) The test agents are weighed, suspended in 0.5% aqueous carboxymethyl cellulose, homogenized (glass tissue grinder) and diluted according to the design of the experiment. Mice (male, 18±1 g., CD-1 strain) are pre-weighed, pooled, infected at random intraperitoneally with a 0.5 ml. standardized suspension (LD95 ±5%) of the bacterial organism in 5% gastric mucin and treated at random with single doses of the test agents either at the time of infection or six hours after infecting. The treated groups consist of ten mice per dosage level. Deaths are recorded daily for 14 days and the PD50 (mice are treated at time of infection) and CD50 (mice are treated six hours after infecting) values are calculated by the method of Reed and Muench [Amer. J. Hyg., 27, 493 (1938)].

K. pneumoniae 10031 = test: In vitro antibacterial activity (MIC), K. pneumoniae 10031; conditions: Klebsiella pneumoniae, 10031, 18 h
N. catarrhalis 8193 = test: In vitro antibacterial activity (MIC), N. catarrhalis 8193; conditions: 18 h
Escherichia coli W-102 = test: In vivo antibacterial synergism (mouse), Escherichia coli W-102; parameters: species or system Escherichia coli (infected mice, CD-1); conditions: mice, p.o.; for PD50 SM/Cpd. (compound part): 0 hours; for PD50 SM/Cpd. (compound part) / CD50 SM/Cpd. (compound part): 20160 min; for CD50 SM/Cpd. (compound part): 6 hours
Experimental: as §1

Proteus mirabilis 3 = test: In vivo antibacterial synergism (mouse), Proteus mirabilis 3; parameters: species or system Proteus mirabilis (infected mice, CD-1); conditions: mice, p.o.; for PD50 SM/Cpd. (compound part): 0 hours, 20160 min
Experimental: as §1

S. paratyphi 11737 = test: In vitro antibacterial activity (MIC), S. paratyphi 11737; type: cell-based; conditions: Salmonella enterica, 18 h
S. aureus Smith = test: In vitro antibacterial activity (MIC), S. aureus Smith; conditions: Staphylococcus aureus, 18 h
Proteus vulgaris 347 = test: In vivo antibacterial synergism (mouse), Proteus vulgaris 347; parameters: species or system Proteus vulgaris (infected mice, CD-1); conditions: mice, p.o.; for ED50: Proteus vulgaris, 347, po, 336 h; for PD50 SM/Cpd. (compound part): 0 hours; for PD50 SM/Cpd. (compound part) / CD50 SM/Cpd. (compound part): 20160 min; for CD50 SM/Cpd. (compound part): 6 hours
Experimental: as §1

E. coli 9637 = test: In vitro antibacterial activity (MIC), E. coli 9637; conditions: Escherichia coli, 9637, 18 h
S. aureus 53-180 = test: In vitro antibacterial activity (MIC), S. aureus 53-180; conditions: Staphylococcus aureus, 53180, 18 h
P. vulgaris 6896 = test: In vitro antibacterial activity (MIC), P. vulgaris 6896; conditions: Proteus vulgaris, 6896, 18 h
[1] = tested on: Plasmodium berghei KBG 173; test: Antimalarial blood schizonticidal test in mice; type: in vivo, Plasmodium berghei (infected ICR/HA Swiss mice); parameters: ΔMST (increase in mean survival time): unit: days; conditions: s.c.
In short: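 ICR/HA Swiss mice (18–22 g) infected i.p. with 4 × 10^7 P. berghei KBG 173-parasitized cells; single subcutaneous dose in peanut oil at 72 h post-infection, graded dosages. Survival followed 60 days; 60-day survivors counted cured, deaths before day 6 counted toxic; mean survival time compared with untreated controls.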

bacterial infections = test: Synergism with sulfamethoxazole against bacterial infections in mice, oral; type: in vivo
Experimental: The invention also provides compounds which will potentiate the antibacterial effects of sulfa drugs.
as §1

[2] = treated 0 hours after infecting, read-out: PD50 (agent alone)
[3] = treated 6 hours after infecting, read-out: CD50 (agent alone)

N#Cc1ccc(Cn2ccc3c4c(N)nc(N)nc4ccc32)cc1 [Example 16, 7-[(4-cyanophenyl)methyl]-7H-pyrrolo[3,2-f]-quinazoline-1,3-diamine]
ED50 (Proteus mirabilis 190; [2]): 18.6 mg/kg
ED50 (Proteus mirabilis 190; [3]): 159 mg/kg
PD50 SM/Cpd. (compound part) (Proteus mirabilis 190; with SM 0.39 mg. per kg.): > 12.50 mg. per kg.
PD50 SM/Cpd. (compound part) (Proteus mirabilis 190; with SM 0.78 mg. per kg.): 8.78 mg. per kg.
PD50 SM/Cpd. (compound part) (Proteus mirabilis 190; with SM 1.56 mg. per kg.): 3.39 mg. per kg.
PD50 SM/Cpd. (compound part) (Proteus mirabilis 190; with SM 3.11 mg. per kg.): 2.44 mg. per kg.
CD50 SM/Cpd. (compound part) (Proteus mirabilis 190; with SM 0.39 mg. per kg.): > 6.25 mg. per kg.
CD50 SM/Cpd. (compound part) (Proteus mirabilis 190; with SM 0.78 mg. per kg.): > 6.25 mg. per kg.
CD50 SM/Cpd. (compound part) (Proteus mirabilis 190; with SM 1.56 mg. per kg.): 4.0 mg. per kg.
CD50 SM/Cpd. (compound part) (Proteus mirabilis 190; with SM 3.11 mg. per kg.): 2.33 mg. per kg.
MIC (K. pneumoniae 10031): 0.061 µg/mL (≈ 0.194 µM)
MIC (N. catarrhalis 8193): 7.6 ng/mL (≈ 0.0242 µM)
ED50 (Escherichia coli W-102; Escherichia coli, W102, po, 336 h, treated 0 hours after infecting, read-out: PD50 (agent alone)): > 800 mg/kg
PD50 SM/Cpd. (compound part) (Escherichia coli W-102; with SM 3.13 mg. per kg.): 67.8 mg. per kg.
PD50 SM/Cpd. (compound part) (Escherichia coli W-102; with SM 6.25 mg. per kg.): 53.1 mg. per kg.
PD50 SM/Cpd. (compound part) (Escherichia coli W-102; with SM 12.5 mg. per kg.): 15.6 mg. per kg.
PD50 SM/Cpd. (compound part) (Escherichia coli W-102; with SM 25.0 mg. per kg.): 15.9 mg. per kg.
CD50 SM/Cpd. (compound part) (Escherichia coli W-102; with SM 12.5 mg. per kg.): 50 mg. per kg.
CD50 SM/Cpd. (compound part) (Escherichia coli W-102; with SM 25 mg. per kg.): 89 mg. per kg.
CD50 SM/Cpd. (compound part) (Escherichia coli W-102; with SM 50 mg. per kg.): 37 mg. per kg.
ED50 (Proteus mirabilis 3; Proteus mirabilis, 3, po, 336 h, treated 0 hours after infecting, read-out: PD50 (agent alone)): 22.7 mg/kg
PD50 SM/Cpd. (compound part) (Proteus mirabilis 3; with SM 0.78 mg. per kg.): 7.11 mg. per kg.
PD50 SM/Cpd. (compound part) (Proteus mirabilis 3; with SM 1.56 mg. per kg.): 6.56 mg. per kg.
PD50 SM/Cpd. (compound part) (Proteus mirabilis 3; with SM 3.13 mg. per kg.): 2.28 mg. per kg.
PD50 SM/Cpd. (compound part) (Proteus mirabilis 3; with SM 6.25 mg. per kg.): 2.11 mg. per kg.
MIC (S. paratyphi 11737): 0.488 µg/mL (≈ 1.55 µM)
MIC (S. aureus Smith): 0.244 µg/mL (≈ 0.776 µM)
ED50 (Proteus vulgaris 347; [2]): > 200 mg/kg
ED50 (Proteus vulgaris 347; [3]): > 400 mg/kg
PD50 SM/Cpd. (compound part) (Proteus vulgaris 347; with SM 0.78 mg. per kg.): > 12.5 mg. per kg.
PD50 SM/Cpd. (compound part) (Proteus vulgaris 347; with SM 1.56 mg. per kg.): > 12.5 mg. per kg.
PD50 SM/Cpd. (compound part) (Proteus vulgaris 347; with SM 3.13 mg. per kg.): 9.67 mg. per kg.
PD50 SM/Cpd. (compound part) (Proteus vulgaris 347; with SM 6.25 mg. per kg.): 6.25 mg. per kg.
CD50 SM/Cpd. (compound part) (Proteus vulgaris 347; with SM 3.11 mg. per kg.): 7.28 mg. per kg.
CD50 SM/Cpd. (compound part) (Proteus vulgaris 347; with SM 6.25 mg. per kg.): 8.83 mg. per kg.
CD50 SM/Cpd. (compound part) (Proteus vulgaris 347; with SM 12.5 mg. per kg.): 4.66 mg. per kg.
CD50 SM/Cpd. (compound part) (Proteus vulgaris 347; with SM 25 mg. per kg.): 5.07 mg. per kg.
MIC (E. coli 9637): 0.244 µg/mL (≈ 0.776 µM)
MIC (S. aureus 53-180): 0.122 µg/mL (≈ 0.388 µM)
MIC (P. vulgaris 6896): 1.95 µg/mL (≈ 6.2 µM)
minimal effective dose ([1]; Plasmodium berghei, sc, 1440 h, single dose, 60-day survivors, read-out: Min. Curing Dose): 5 mg/kg
Cure/Treat at Min. Curing Dose ([1]; at the Min. Curing Dose, 60-day survivors): 1/5
ΔMST (increase in mean survival time) ([1]; dose 10 mg. per kg.): 8.4
synergistic effect with sulfamethoxazole (bacterial infections): synergistic effect
